Literature values as cited in patent US20110245283A1, “Methods for predicting the response to statins” (priority 2009, published 2011).
Read-outs that look alike come from different tables or passages of the source.

Details: cited from earlier work

Compound: CCOC(=O)C(C)(C)Oc1ccc(Cl)cc1 [Clofibrate]
- Increased risk of toxicity or reduced statin effectiveness (with Atorva): (+)
- Severity of the interaction (with Atorva): 3
- Increased risk of toxicity or reduced statin effectiveness (with Fluva): (+)
- Severity of the interaction (with Fluva): 3
- Increased risk of toxicity or reduced statin effectiveness (with Lova): (+)
- Severity of the interaction (with Lova): 3
- Increased risk of toxicity or reduced statin effectiveness (with Prava): (+)
- Severity of the interaction (with Prava): 3
- Increased risk of toxicity or reduced statin effectiveness (with Simva): (+)
- Severity of the interaction (with Simva): 3

Compound: CO[C@H]1/C=C/O[C@@]2(C)Oc3c(C)c(O)c4c(O)c(c(/C=N/N5CCN(C)CC5)c(O)c4c3C2=O)NC(=O)/C(C)=C\C=C\[C@H](C)[C@H](O)[C@@H](C)[C@@H](O)[C@@H](C)[C@H](OC(C)=O)[C@@H]1C [Rifampin]
- Severity of the interaction (with Fluva): 1
- Severity of the interaction (with Simva): 2

Compound: NC(=O)N1c2ccccc2C=Cc2ccccc21 [Carbamazepine]
- Severity of the interaction (with Simva): 2

Compound: Colestipol
- Severity of the interaction (with Prava): 2

Compound: O=C1NC(c2ccccc2)(c2ccccc2)C(=O)N1COP(=O)(O)O [Fosphenytoin]
- Severity of the interaction (with Atorva): 2
- Severity of the interaction (with Simva): 2

Compound: Cc1nc2n(c(=O)c1CCN1CCC(c3noc4cc(F)ccc34)CC1)CCCC2 [Risperidone]
- Increased risk of toxicity or reduced statin effectiveness (with Simva): (+)
- Severity of the interaction (with Simva): 3

Compound: CC(C)(C)NC(=O)[C@@H]1C[C@@H]2CCCC[C@@H]2CN1C[C@@H](O)[C@H](Cc1ccccc1)NC(=O)[C@H](CC(N)=O)NC(=O)c1ccc2ccccc2n1 [Saquinavir]
- Increased risk of toxicity or reduced statin effectiveness (with Atorva): (+)
- Increased risk of toxicity or reduced statin effectiveness (with Lova): (+)
- Increased risk of toxicity or reduced statin effectiveness (with Simva): (+)

Compound: COC(=O)[C@H](c1ccccc1Cl)N1CCc2sccc2C1 [Clopidogrel]
- Increased risk of toxicity or reduced statin effectiveness (with Fluva): (+)
- Severity of the interaction (with Fluva): 2

Compound: CC(C)(Oc1ccc(CCNC(=O)c2ccc(Cl)cc2)cc1)C(=O)O [Bezafibrate]
- Increased risk of toxicity or reduced statin effectiveness (with Atorva): (+)
- Severity of the interaction (with Atorva): 3
- Increased risk of toxicity or reduced statin effectiveness (with Fluva): (+)
- Severity of the interaction (with Fluva): 3
- Increased risk of toxicity or reduced statin effectiveness (with Lova): (+)
- Severity of the interaction (with Lova): 3
- Increased risk of toxicity or reduced statin effectiveness (with Prava): (+)
- Severity of the interaction (with Prava): 3
- Increased risk of toxicity or reduced statin effectiveness (with Simva): (+)
- Severity of the interaction (with Simva): 3

Compound: CC(C)CN(C[C@@H](OP(=O)(O)O)[C@H](Cc1ccccc1)NC(=O)O[C@H]1CCOC1)S(=O)(=O)c1ccc(N)cc1 [Fosamprenavir]
- Increased risk of toxicity or reduced statin effectiveness (with Atorva): (+)
- Severity of the interaction (with Atorva): 3
- Increased risk of toxicity or reduced statin effectiveness (with Lova): (+)
- Severity of the interaction (with Lova): 3
- Increased risk of toxicity or reduced statin effectiveness (with Simva): (+)
- Severity of the interaction (with Simva): 3

Compound: CC(C)OC(=O)C(C)(C)Oc1ccc(C(=O)c2ccc(Cl)cc2)cc1 [Fenofibrate]
- Increased risk of toxicity or reduced statin effectiveness (with Atorva): (+)
- Increased risk of toxicity or reduced statin effectiveness (with Fluva): (+)
- Increased risk of toxicity or reduced statin effectiveness (with Lova): (+)
- Increased risk of toxicity or reduced statin effectiveness (with Prava): (+)
- Increased risk of toxicity or reduced statin effectiveness (with Simva): (+)

Compound: Cc1c(C)c2c(c(C)c1O)CCC(C)(COc1ccc(CC3SC(=O)NC3=O)cc1)O2 (centres unmarked) [Troglitazone]
- Severity of the interaction (with Simva): 1

Compound: COc1ccccc1Oc1c(NS(=O)(=O)c2ccc(C(C)(C)C)cc2)nc(-c2ncccn2)nc1OCCO [Bosentan]
- Severity of the interaction (with Atorva): 2
- Severity of the interaction (with Lova): 2
- Severity of the interaction (with Simva): 2

Compound: COc1ccc2[nH]c([S+]([O-])Cc3ncc(C)c(OC)c3C)nc2c1 (centres unmarked) [Omeprazole]
- Increased risk of toxicity or reduced statin effectiveness (with Fluva): (+)
- Severity of the interaction (with Fluva): 1

Compound: Pectin
- Severity of the interaction (with Atorva): 2
- Severity of the interaction (with Fluva): 2
- Severity of the interaction (with Lova): 2
- Severity of the interaction (with Prava): 2
- Severity of the interaction (with Rosuva): 2
- Severity of the interaction (with Simva): 2

Compound: Cc1c(O)cccc1C(=O)N[C@@H](CSc1ccccc1)[C@H](O)CN1C[C@H]2CCCC[C@H]2C[C@H]1C(=O)NC(C)(C)C [Nelfinavir]
- Increased risk of toxicity or reduced statin effectiveness (with Atorva): (+)
- Severity of the interaction (with Atorva): 3
- Increased risk of toxicity or reduced statin effectiveness (with Lova): (+)
- Severity of the interaction (with Lova): 3
- Increased risk of toxicity or reduced statin effectiveness (with Simva): (+)
- Severity of the interaction (with Simva): 3

Compound: O=C1NC(=O)C(c2ccccc2)(c2ccccc2)N1 [Phenytoin]
- Severity of the interaction (with Atorva): 2
- Increased risk of toxicity or reduced statin effectiveness (with Fluva): (+)
- Severity of the interaction (with Fluva): 2
- Severity of the interaction (with Simva): 2

Compound: CC(C)c1nc(CN(C)C(=O)N[C@H](C(=O)N[C@@H](Cc2ccccc2)C[C@H](O)[C@H](Cc2ccccc2)NC(=O)OCc2cncs2)C(C)C)cs1 [Rotinavir]
- Increased risk of toxicity or reduced statin effectiveness (with Atorva): (+)
- Severity of the interaction (with Atorva): 2
- Increased risk of toxicity or reduced statin effectiveness (with Lova): (+)
- Severity of the interaction (with Lova): 3
- Increased risk of toxicity or reduced statin effectiveness (with Simva): (+)
- Severity of the interaction (with Simva): 3

Compound: OC(Cn1cncn1)(Cn1cncn1)c1ccc(F)cc1F [Fluconazole]
- Increased risk of toxicity or reduced statin effectiveness (with Atorva): (+)
- Increased risk of toxicity or reduced statin effectiveness (with Fluva): (+)
- Increased risk of toxicity or reduced statin effectiveness (with Lova): (+)
- Increased risk of toxicity or reduced statin effectiveness (with Rosuva): (+)
- Increased risk of toxicity or reduced statin effectiveness (with Simva): (+)

Compound: CC(C)CN(C[C@@H](O)[C@H](Cc1ccccc1)NC(=O)O[C@H]1CCOC1)S(=O)(=O)c1ccc(N)cc1 [Amprenavir]
- Increased risk of toxicity or reduced statin effectiveness (with Atorva): (+)
- Severity of the interaction (with Atorva): 2
- Increased risk of toxicity or reduced statin effectiveness (with Lova): (+)
- Severity of the interaction (with Lova): 3
- Increased risk of toxicity or reduced statin effectiveness (with Prava): (+)
- Severity of the interaction (with Prava): 2
- Increased risk of toxicity or reduced statin effectiveness (with Simva): (+)
- Severity of the interaction (with Simva): 3

Compound: CCCCc1oc2ccccc2c1C(=O)c1cc(I)c(OCCN(CC)CC)c(I)c1 [Amiodarone]
- Severity of the interaction (with Lova): 3
- Severity of the interaction (with Simva): 3

Compound: O=C(O)c1cccnc1 [Niacin]
- Increased risk of toxicity or reduced statin effectiveness (with Atorva): (+)
- Severity of the interaction (with Atorva): 3
- Increased risk of toxicity or reduced statin effectiveness (with Fluva): (+)
- Severity of the interaction (with Fluva): 2
- Increased risk of toxicity or reduced statin effectiveness (with Lova): (+)
- Severity of the interaction (with Lova): 3
- Increased risk of toxicity or reduced statin effectiveness (with Prava): (+)
- Severity of the interaction (with Prava): 2
- Increased risk of toxicity or reduced statin effectiveness (with Rosuva): (+)
- Severity of the interaction (with Rosuva): 3
- Increased risk of toxicity or reduced statin effectiveness (with Simva): (+)
- Severity of the interaction (with Simva): 3

Compound: COCC(=O)O[C@]1(CCN(C)CCCc2nc3ccccc3[nH]2)CCc2cc(F)ccc2[C@@H]1C(C)C [Mibefradil]
- Increased risk of toxicity or reduced statin effectiveness (with Atorva): (+)
- Severity of the interaction (with Atorva): 3
- Increased risk of toxicity or reduced statin effectiveness (with Fluva): (+)
- Severity of the interaction (with Fluva): 1
- Increased risk of toxicity or reduced statin effectiveness (with Lova): (+)
- Severity of the interaction (with Lova): 4
- Increased risk of toxicity or reduced statin effectiveness (with Prava): (+)
- Severity of the interaction (with Prava): 1
- Increased risk of toxicity or reduced statin effectiveness (with Simva): (+)
- Severity of the interaction (with Simva): 4

Compound: CC(=O)N1CCN(c2ccc(OCC3COC(Cn4ccnc4)(c4ccc(Cl)cc4Cl)O3)cc2)CC1 (centres unmarked) [Ketoconazole]
- Increased risk of toxicity or reduced statin effectiveness (with Atorva): (+)
- Severity of the interaction (with Atorva): 3
- Increased risk of toxicity or reduced statin effectiveness (with Lova): (+)
- Severity of the interaction (with Lova): 3
- Increased risk of toxicity or reduced statin effectiveness (with Simva): (+)
- Severity of the interaction (with Simva): 3

Compound: COC(=O)N[C@H](C(=O)N[C@@H](Cc1ccccc1)[C@@H](O)CN(Cc1ccc(-c2ccccn2)cc1)NC(=O)[C@@H](NC(=O)OC)C(C)(C)C)C(C)(C)C [Atazanavir]
- Increased risk of toxicity or reduced statin effectiveness (with Atorva): (+)
- Severity of the interaction (with Atorva): 3
- Increased risk of toxicity or reduced statin effectiveness (with Lova): (+)
- Severity of the interaction (with Lova): 3
- Increased risk of toxicity or reduced statin effectiveness (with Simva): (+)
- Severity of the interaction (with Simva): 3

Compound: C#C[C@]1(O)CC[C@H]2[C@@H]3CCC4=Cc5oncc5C[C@]4(C)[C@H]3CC[C@@]21C [Danazol]
- Increased risk of toxicity or reduced statin effectiveness (with Simva): (+)

Compound: CC(C)Nc1cccnc1N1CCN(C(=O)c2cc3cc(NS(C)(=O)=O)ccc3[nH]2)CC1 [Delavirdine]
- Increased risk of toxicity or reduced statin effectiveness (with Atorva): (+)
- Severity of the interaction (with Atorva): 2

Compound: CC[C@H]1OC(=O)[C@H](C)[C@@H](O[C@H]2C[C@@](C)(OC)[C@@H](O)[C@H](C)O2)[C@H](C)[C@@H](O[C@@H]2O[C@H](C)C[C@H](N(C)C)[C@H]2O)[C@](C)(OC)C[C@@H](C)C(=O)[C@H](C)[C@@H](O)[C@]1(C)O [Clarithromycin]
- Increased risk of toxicity or reduced statin effectiveness (with Atorva): (+)
- Severity of the interaction (with Atorva): 3
- Increased risk of toxicity or reduced statin effectiveness (with Lova): (+)
- Severity of the interaction (with Lova): 3
- Increased risk of toxicity or reduced statin effectiveness (with Simva): (+)
- Severity of the interaction (with Simva): 3

Compound: CCc1nn(CCCN2CCN(c3cccc(Cl)c3)CC2)c(=O)n1CCOc1ccccc1 [Nefazodone]
- Increased risk of toxicity or reduced statin effectiveness (with Atorva): (+)
- Severity of the interaction (with Atorva): 3
- Increased risk of toxicity or reduced statin effectiveness (with Lova): (+)
- Severity of the interaction (with Lova): 3
- Increased risk of toxicity or reduced statin effectiveness (with Prava): (+)
- Severity of the interaction (with Prava): 2
- Increased risk of toxicity or reduced statin effectiveness (with Simva): (+)
- Severity of the interaction (with Simva): 3

Compound: CCC(C)n1ncn(-c2ccc(N3CCN(c4ccc(OCC5COC(Cn6cncn6)(c6ccc(Cl)cc6Cl)O5)cc4)CC3)cc2)c1=O (centres unmarked) [Itraconazole]
- Increased risk of toxicity or reduced statin effectiveness (with Atorva): (+)
- Severity of the interaction (with Atorva): 3
- Increased risk of toxicity or reduced statin effectiveness (with Lova): (+)
- Severity of the interaction (with Lova): 4
- Increased risk of toxicity or reduced statin effectiveness (with Rosuva): (+)
- Severity of the interaction (with Rosuva): 2
- Increased risk of toxicity or reduced statin effectiveness (with Simva): (+)
- Severity of the interaction (with Simva): 4

Compound: Cholestyramine
- Severity of the interaction (with Fluva): 1
- Severity of the interaction (with Prava): 2

Compound: CC(C)(Oc1ccc(C2CC2(Cl)Cl)cc1)C(=O)O (centres unmarked) [Ciprofibrate]
- Increased risk of toxicity or reduced statin effectiveness (with Atorva): (+)
- Severity of the interaction (with Atorva): 3
- Increased risk of toxicity or reduced statin effectiveness (with Fluva): (+)
- Severity of the interaction (with Fluva): 3
- Increased risk of toxicity or reduced statin effectiveness (with Lova): (+)
- Severity of the interaction (with Lova): 3
- Increased risk of toxicity or reduced statin effectiveness (with Prava): (+)
- Severity of the interaction (with Prava): 3
- Increased risk of toxicity or reduced statin effectiveness (with Simva): (+)
- Severity of the interaction (with Simva): 3
